Consider 24 compounds from PubChem BioAssay AID256 (DTP/NCI, 2004).

Several values for one entry are separate records, joined by “and”; a condition that tells them apart may be missing. Equal entries are not always repeated. Inconclusive results and toxic doses are left out.

The subject of the experiment is CD2F1 mice, L1210 leukemia ip, survival T/C. The experiment can be described thus: NCI In Vivo Anticancer Drug Screen. Data for tumor model L1210 Leukemia (intraperitoneal) in CD2F1 (CDF1) mice. Particulars: endpoint: mean survival time, higher = longer survival. In outline:
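Activity against a transplanted murine tumor was judged by comparing the compound group with a vehicle group. The outcome in the treated animals was divided by that in the controls.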

Where [1] appears, read: dose: 50.0 mg/kg/injection, schedule: Q04DX002 (ip), vehicle: saline with Tween-80.
[2] abbreviates: dose: 200.0 mg/kg/injection, schedule: Q04DX002 (ip), vehicle: saline with Tween-80.
[3] abbreviates: dose: 100.0 mg/kg/injection, schedule: Q01DX009 (ip), vehicle: saline with Tween-80.
Where [4] appears, read: dose: 200.0 mg/kg/injection, schedule: Q01DX009 (ip), vehicle: saline with Tween-80.
Setting [5] is: dose: 400.0 mg/kg/injection, schedule: Q01DX009 (ip), vehicle: saline with Tween-80.
[6] abbreviates: dose: 25.0 mg/kg/injection, schedule: Q04DX003 (ip), vehicle: saline with Tween-80.
Where [7] appears, read: dose: 50.0 mg/kg/injection, schedule: Q01DX009 (ip), vehicle: saline with Tween-80.
The mark [8] stands for this setting: dose: 50.0 mg/kg/injection, schedule: Q04DX003 (ip), vehicle: saline with Tween-80.
The mark [9] stands for this setting: dose: 200.0 mg/kg/injection, schedule: Q01DX001 (ip), vehicle: saline with Tween-80.
The mark [10] stands for this setting: dose: 200.0 mg/kg/injection, schedule: Q04DX003 (ip), vehicle: saline with Tween-80.
[11] abbreviates: dose: 100.0 mg/kg/injection, schedule: Q04DX003 (ip), vehicle: saline.
[12] abbreviates: dose: 100.0 mg/kg/injection, schedule: Q04DX003 (ip), vehicle: saline with Tween-80.
Setting [13] is: dose: 400.0 mg/kg/injection, schedule: Q04DX003 (ip), vehicle: saline with Tween-80.
Setting [14] is: dose: 100.0 mg/kg/injection, schedule: Q01DX001 (ip), vehicle: saline with Tween-80.
Where [15] appears, read: dose: 400.0 mg/kg/injection, schedule: Q01DX001 (ip), vehicle: saline with Tween-80.
Where [16] appears, read: dose: 100.0 mg/kg/injection, schedule: Q01DX001 (ip), vehicle: Klucel (hydroxypropylcellulose) (HPC).
[17] abbreviates: dose: 200.0 mg/kg/injection, schedule: Q01DX001 (ip), vehicle: Klucel (hydroxypropylcellulose) (HPC).
[18] abbreviates: dose: 400.0 mg/kg/injection, schedule: Q01DX001 (ip), vehicle: Klucel (hydroxypropylcellulose) (HPC).
Setting [19] is: dose: 12.5 mg/kg/injection, schedule: Q01DX009 (ip), vehicle: Klucel (hydroxypropylcellulose) (HPC).
The mark [20] stands for this setting: dose: 25.0 mg/kg/injection, schedule: Q01DX009 (ip), vehicle: Klucel (hydroxypropylcellulose) (HPC).
[21] abbreviates: dose: 100.0 mg/kg/injection, schedule: Q01DX001 (ip), vehicle: saline.
The mark [22] stands for this setting: dose: 200.0 mg/kg/injection, schedule: Q01DX001 (ip), vehicle: saline.
The mark [23] stands for this setting: dose: 400.0 mg/kg/injection, schedule: Q01DX001 (ip), vehicle: saline.

On to `Cc1ccc(S(=O)[O-])cc1.[C-]#[O+].[C-]#[O+].[Fe+6].[c-]1[c-][c-][cH-][c-]1`, for which the T/C was 97 % of control under setting [1] and 108 % of control under setting [2].
In the case of `O=c1[nH]cnc2c1ncn2C1CC(CO)C(O)OC1O` (stereo unspecified), the T/C is 164 % of control (dose: 100.0 mg/kg/injection, schedule: Q04DX002 (ip), vehicle: saline) and 188 % of control (dose: 200.0 mg/kg/injection, schedule: Q04DX002 (ip), vehicle: saline).
For `CC(=O)c1ccc(NCN2C(=O)c3ccccc3C2=O)cc1`, the T/C under setting [3] is 96 % of control, the T/C under setting [4] is 98 % of control and the T/C under setting [5] was 98 % of control.
On to `CCOC(=O)c1ccc(NC(=O)Nc2ccc(Cl)cc2Cl)cc1`, for which the T/C is 95 % of control (dose: 12.5 mg/kg/injection, schedule: Q01DX001 (ip), vehicle: saline with Tween-80); 91 % of control and 92 % of control (dose: 12.5 mg/kg/injection, schedule: Q01DX009 (ip), vehicle: saline with Tween-80); 93 % of control and 96 % of control (dose: 25.0 mg/kg/injection, schedule: Q01DX001 (ip), vehicle: saline with Tween-80); 88 % of control and 97 % of control (dose: 25.0 mg/kg/injection, schedule: Q01DX009 (ip), vehicle: saline with Tween-80); 95 % of control and 96 % of control (dose: 25.0 mg/kg/injection, schedule: Q04DX002 (ip), vehicle: saline with Tween-80); 86 % of control under setting [6]. The T/C runs as follows: (dose: 50.0 mg/kg/injection, schedule: Q01DX001 (ip), vehicle: saline with Tween-80) 91 % of control; under setting [7], 88 % of control; under setting [1], 88 % of control and 96 % of control; under setting [8], 91 % of control; under setting [9], 92 % of control; under setting [2], 88 % of control. For the same compound, the T/C reads like this: under setting [10], 89 % of control; (dose: 400.0 mg/kg/injection, schedule: Q04DX002 (ip), vehicle: saline with Tween-80) 86 % of control.
In the case of `Nc1ncnc2[nH]c(=O)[nH]c12`, the T/C runs as follows: (dose: 12.5 mg/kg/injection, schedule: Q01DX009 (ip), vehicle: saline) 101 % of control; (dose: 25.0 mg/kg/injection, schedule: Q01DX009 (ip), vehicle: saline) 114 % of control; (dose: 50.0 mg/kg/injection, schedule: Q01DX009 (ip), vehicle: saline) 105 % of control; under setting [11], 108 % of control; (dose: 200.0 mg/kg/injection, schedule: Q04DX003 (ip), vehicle: saline) 112 % of control; (dose: 400.0 mg/kg/injection, schedule: Q04DX003 (ip), vehicle: saline) 108 % of control.
Regarding `O=C1NC(=O)C(c2ccccc2)(c2ccc(O)cc2)N1` (stereo unspecified), the T/C was 105 % of control under setting [3]; 95 % of control (dose: 100.0 mg/kg/injection, schedule: Q04DX003 (ip), vehicle: saline sonified); 95 % of control under setting [4]; 93 % of control (dose: 200.0 mg/kg/injection, schedule: Q04DX003 (ip), vehicle: saline sonified); 95 % of control under setting [5]; 93 % of control (dose: 400.0 mg/kg/injection, schedule: Q04DX003 (ip), vehicle: saline sonified).
In the case of `CC(C)CC#N`, the T/C was 100 % of control under setting [3], 101 % of control under setting [12], 104 % of control under setting [10] and 104 % of control under setting [13].
Regarding `Nc1ccc(Nc2ccc([N+](=O)[O-])cc2[N+](=O)[O-])cc1`, the T/C was 89 % of control under setting [14], 96 % of control under setting [9] and 96 % of control under setting [15].
Regarding `BrC1C(Br)C2C3C=CC(c4ccccc43)C12` (stereo unspecified), the T/C under setting [3] was 91 % of control; the T/C under setting [12] was 98 % of control; the T/C under setting [4] was 94 % of control; the T/C under setting [10] is 98 % of control; the T/C under setting [5] was 89 % of control; the T/C under setting [13] was 96 % of control.
For the compound `COC(=O)CC(=O)NC(C)CC1CNc2ccccc21` (stereo unspecified), the T/C reads like this: under setting [12], 103 % of control; under setting [10], 103 % of control; under setting [13], 97 % of control.
For the compound `C[n+]1ccccc1NC(=O)c1ccccc1`, the T/C reads like this: under setting [12], 98 % of control; under setting [10], 95 % of control; under setting [13], 88 % of control.
As to `CC(C)(C)OC(=O)NC(CCCCNC(=O)C(F)(F)F)C(=O)ON1C(=O)CCC1=O` (stereo unspecified), the T/C is 102 % of control under setting [6]; 102 % of control under setting [8]; 89 % of control and 101 % of control under setting [12].
On to `CN(C)Nc1cc(N)c(N=Nc2ccccc2)c(=O)[nH]1`, for which the T/C by setting is: under setting [16], 107 % of control; under setting [17], 97 % of control; under setting [18], 117 % of control.
For `CCC(=O)c1ccc2c(c1)N(C(C)CN(C)C)c1ccccc1S2` (stereo unspecified), the T/C (dose: 25.0 mg/kg/injection, schedule: Q04DX003 (ip), vehicle: saline) was 97 % of control; the T/C (dose: 50.0 mg/kg/injection, schedule: Q04DX003 (ip), vehicle: saline) was 97 % of control; the T/C under setting [11] was 101 % of control.
Consider `CC(=O)OCc1cc(=O)n(C)c2c3c4c(cc12)c(C)cc(=O)n4CO3`, for which the T/C (dose: 6.25 mg/kg/injection, schedule: Q01DX009 (ip), vehicle: Klucel (hydroxypropylcellulose) (HPC)) was 100 % of control; the T/C under setting [19] was 104 % of control and 112 % of control; the T/C under setting [20] was 112 % of control and 114 % of control and 109 % of control; the T/C (dose: 50.0 mg/kg/injection, schedule: Q01DX009 (ip), vehicle: Klucel (hydroxypropylcellulose) (HPC)) was 119 % of control; the T/C (dose: 100.0 mg/kg/injection, schedule: Q01DX009 (ip), vehicle: Klucel (hydroxypropylcellulose) (HPC)) was 90 % of control.
With `CN=C(N)N(C)C`, the T/C by setting is: under setting [21], 101 % of control; under setting [22], 101 % of control; under setting [23], 95 % of control.
Consider `COc1cccc(NC(=O)NC2C(OC(C)=O)OC(COC(C)=O)C(OC(C)=O)C2OC(C)=O)c1` (stereo unspecified), for which the T/C is 98 % of control (dose: 12.5 mg/kg/injection, schedule: Q01DX009 (ip), vehicle: other); 98 % of control (dose: 25.0 mg/kg/injection, schedule: Q01DX009 (ip), vehicle: other); 90 % of control (dose: 50.0 mg/kg/injection, schedule: Q01DX009 (ip), vehicle: other); 90 % of control (dose: 100.0 mg/kg/injection, schedule: Q01DX009 (ip), vehicle: other); 96 % of control (dose: 200.0 mg/kg/injection, schedule: Q01DX009 (ip), vehicle: other).
With `CCCCSC#N`, the T/C is 95 % of control (dose: 7.5 mg/kg/injection, schedule: Q01DX009 (ip), vehicle: saline with Tween-80); 100 % of control (dose: 15.0 mg/kg/injection, schedule: Q01DX009 (ip), vehicle: saline with Tween-80); 91 % of control (dose: 30.0 mg/kg/injection, schedule: Q01DX009 (ip), vehicle: saline with Tween-80).
For `COc1ccc2c(c1)CCN1C2CCN2CCCC21` (stereo unspecified), the T/C reads like this: under setting [12], 98 % of control; under setting [10], 90 % of control.
Regarding `CCCC/C=C/C(C)(C)O`, the T/C is 107 % of control under setting [7], 103 % of control under setting [3] and 107 % of control under setting [4].
As to `CC1(C)NC(=O)NC1=O`, the T/C by setting is: under setting [21], 98 % of control; under setting [22], 107 % of control; under setting [23], 107 % of control.
Regarding `[N-]=[N+]=NC(=O)c1cnc(OCc2ccccc2)nc1N`, the T/C under setting [14] is 91 % of control; the T/C under setting [3] was 93 % of control; the T/C under setting [9] was 96 % of control; the T/C under setting [4] was 96 % of control; the T/C under setting [15] is 94 % of control; the T/C under setting [5] is 93 % of control.
For `CCOP(=O)(OCC)C(c1ccccc1)(c1ccccc1)c1ccccc1`, the T/C runs as follows: under setting [16], 103 % of control; under setting [17], 96 % of control; under setting [18], 102 % of control.
With `O=c1scc(-c2ccc(C(F)(F)F)cc2)s1`, the T/C by setting is: under setting [19], 100 % of control; under setting [20], 91 % of control.
